Experimental data taken from article doi:10.1101/2021.01.21.427670v1 (biorxiv, 2021).

What was measured:
α4β1δ GABAA receptor [1] = target: T1, α4β1δ GABAA receptor (Homo sapiens, UniProt P18505+P48169, P18505:I289Q); assay: cell-based; design: species or system HEK293 Flp-In
α4β1δ GABAA receptor [2] = target: T2, α4β1δ GABAA receptor (Homo sapiens, UniProt P18505+P48169); assay: cell-based; design: species or system HEK293 Flp-In
α4β1δ GABAA receptor [3] = target: T3, α4β1δ GABAA receptor (Homo sapiens, UniProt P18505+P48169, P48169:S303L); assay: cell-based; design: species or system HEK293 Flp-In
T3 sequence (P48169 36-554 S303L): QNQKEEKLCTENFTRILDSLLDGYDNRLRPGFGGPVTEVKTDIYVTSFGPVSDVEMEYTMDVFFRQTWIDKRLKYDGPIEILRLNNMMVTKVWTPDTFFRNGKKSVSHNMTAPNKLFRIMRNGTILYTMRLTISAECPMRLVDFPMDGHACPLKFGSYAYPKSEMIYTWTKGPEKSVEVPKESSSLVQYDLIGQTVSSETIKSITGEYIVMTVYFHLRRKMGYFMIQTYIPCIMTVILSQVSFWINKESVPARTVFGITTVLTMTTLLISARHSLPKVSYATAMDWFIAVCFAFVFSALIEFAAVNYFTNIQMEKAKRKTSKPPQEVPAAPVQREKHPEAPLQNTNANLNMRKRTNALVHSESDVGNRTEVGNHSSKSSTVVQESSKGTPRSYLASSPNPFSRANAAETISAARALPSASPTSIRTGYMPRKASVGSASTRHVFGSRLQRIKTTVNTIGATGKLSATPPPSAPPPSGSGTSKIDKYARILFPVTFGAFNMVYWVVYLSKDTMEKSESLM
T3 sequence (P18505 26-474): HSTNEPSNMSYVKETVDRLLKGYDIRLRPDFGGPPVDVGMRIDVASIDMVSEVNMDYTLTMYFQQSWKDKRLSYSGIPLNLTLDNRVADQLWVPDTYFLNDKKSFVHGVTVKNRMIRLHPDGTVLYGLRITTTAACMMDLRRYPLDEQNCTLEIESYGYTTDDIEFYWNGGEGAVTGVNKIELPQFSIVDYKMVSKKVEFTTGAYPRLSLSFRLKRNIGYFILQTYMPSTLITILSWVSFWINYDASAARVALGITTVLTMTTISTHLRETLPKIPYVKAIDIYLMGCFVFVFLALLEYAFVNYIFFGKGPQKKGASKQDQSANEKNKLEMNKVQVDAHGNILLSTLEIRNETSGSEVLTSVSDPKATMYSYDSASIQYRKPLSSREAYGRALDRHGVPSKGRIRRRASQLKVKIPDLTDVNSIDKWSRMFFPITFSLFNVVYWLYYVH
T3 sequence (O14764 25-452 partner): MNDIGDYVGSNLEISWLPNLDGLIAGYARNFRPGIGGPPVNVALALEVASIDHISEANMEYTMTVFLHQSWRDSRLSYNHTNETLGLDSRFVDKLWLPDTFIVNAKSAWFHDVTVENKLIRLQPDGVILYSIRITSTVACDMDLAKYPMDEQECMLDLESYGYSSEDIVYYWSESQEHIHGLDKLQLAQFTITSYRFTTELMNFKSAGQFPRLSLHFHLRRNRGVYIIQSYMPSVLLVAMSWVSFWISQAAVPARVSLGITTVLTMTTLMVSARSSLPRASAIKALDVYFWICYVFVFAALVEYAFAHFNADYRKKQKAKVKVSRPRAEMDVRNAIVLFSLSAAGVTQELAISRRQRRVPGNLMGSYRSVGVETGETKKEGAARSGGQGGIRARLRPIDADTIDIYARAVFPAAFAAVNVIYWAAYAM

α4β1δ GABAA receptor [4] = target: T1, α4β1δ GABAA receptor; assay: FLIPR membrane potential; format: cell-based
α4β1δ GABAA receptor [5] = target: T3, α4β1δ GABAA receptor; assay: FLIPR membrane potential; format: cell-based
α4β1δ GABAA receptor [6] = target: T2, α4β1δ GABAA receptor; assay: FLIPR membrane potential; format: cell-based

T1 sequence (P48169 36-554): as the sequence (P48169 36-554 S303L) above, with L268S counted along it
T1 sequence (P18505 26-474 I289Q): as the sequence (P18505 26-474) above, with I264Q counted along it
T1 sequence (O14764 25-452 partner): as the sequence (O14764 25-452 partner) above
T2 sequence (P48169 36-554): as the sequence (P48169 36-554 S303L) above, with L268S counted along it
T2 sequence (P18505 26-474): as the sequence (P18505 26-474) above
T2 sequence (O14764 25-452 partner): as the sequence (O14764 25-452 partner) above

Row | SMILES | EC50 (α4β1δ GABAA receptor [1]) | EC50 (α4β1δ GABAA receptor [2]) | EC50 (α4β1δ GABAA receptor [3]) | EC50 (α4β1δ GABAA receptor [4]) | EC50 (α4β1δ GABAA receptor [5]) | EC50 (α4β1δ GABAA receptor [6])
1 | CCOC(=O)Nc1ccc(NCc2c(C)cc(C)cc2C)cc1N [AA29504, [2-amino-4-(2,4,6-trimethylbenzylamino)-phenyl]-carbamic acid ethyl ester] | 0.76 µM | 0.55 µM | 0.25 µM | – | – | –
2 | CCOC(=O)c1cncn1[C@H](C)c1ccccc1 [etomidate, (R)-1-(1-phenylethyl)-1H-imidazole-5-carboxylic acid ethyl ester] | – | – | – | 9.3 µM | 6.2 µM | 7.8 µM
